Laboratory results: ChEMBL document CHEMBL2176890, “2-(3-fluoro-4-methylsulfonylaminophenyl)propanamides as potent transient receptor potential vanilloid 1 (TRPV1) antagonists: structure-activity relationships of 2-amino derivatives in the N-(6-trifluoromethylpyridin-3-ylmethyl) C-region” (J Med Chem, 2012)
Active and inactive are the calls of the source. The rule behind the calls is not given here.

Columns and labels:
[1] = target: T1, Transient receptor potential cation channel subfamily V member 1 (Homo sapiens, UniProt Q8NER1); test: Antagonist activity at human TRPV1 expressed in CHOK1 cells assessed as inhibition of pH-induced activity by FLIPR assay; format: functional, cell-based, CHO-K1
[2] = target: T1, Transient receptor potential cation channel subfamily V member 1; test: Antagonist activity at human TRPV1 expressed in CHOK1 cells assessed as inhibition of capsaicin-induced activity by FLIPR assay; format: functional, cell-based, CHO-K1
[3] = system: Rattus norvegicus; test: Toxicity in po dosed CCI-induced Sprague-Dawley rat neuropathic pain model assessed as decreased locomotion; format: organism-based; conditions: in vivo
[4] = system: Rattus norvegicus; test: Toxicity in po dosed CCI-induced Sprague-Dawley rat neuropathic pain model assessed as sedation; format: organism-based; conditions: in vivo
[5] = system: Rattus norvegicus; test: Analgesic activity in CCI-induced Sprague-Dawley rat neuropathic pain model assessed as reduction in paw withdrawal measured 30 mins after po administration; format: functional, organism-based
[6] = target: T1, Transient receptor potential cation channel subfamily V member 1; test: Antagonist activity at human TRPV1 expressed in CHOK1 cells assessed as inhibition of N-acetyldopamine-induced activity after 5 mins by FLIPR assay; format: functional, cell-based, CHO-K1
[7] = target: T1, Transient receptor potential cation channel subfamily V member 1; test: Antagonist activity at human TRPV1 expressed in CHOK1 cells assessed as inhibition of heat-induced activity after 5 mins by FLIPR assay; format: functional, cell-based, CHO-K1
[8] = system: Mus musculus; test: Inhibition of capsaicin-induced hypothermia in NMRI mouse at 0.3 mg/kg, po administered 15 mins prior challenge; format: functional, organism-based; set-up: dose 0.3 mg/kg
[9] = system: Rattus norvegicus; test: Analgesic activity in CCI-induced Sprague-Dawley rat neuropathic pain model assessed as reduction in paw withdrawal at 3.16 mg/kg, po after 45 mins; format: functional
[10] = system: Rattus norvegicus; test: Analgesic activity in CCI-induced Sprague-Dawley rat neuropathic pain model assessed as reduction in paw withdrawal measured 45 mins after po administration; format: functional
[11] = system: Mus musculus; test: Acute toxicity in C57BL/6J mouse assessed as hyperthermia at 1 mg/kg, po at 45 to 60 mins; conditions: in vivo
[12] = system: Mus musculus; test: Acute toxicity in TRPV1 knockout mouse assessed as hyperthermia at 1 mg/kg, po at 45 to 60 mins; conditions: in vivo

T1 sequence (Q8NER1 whole entry): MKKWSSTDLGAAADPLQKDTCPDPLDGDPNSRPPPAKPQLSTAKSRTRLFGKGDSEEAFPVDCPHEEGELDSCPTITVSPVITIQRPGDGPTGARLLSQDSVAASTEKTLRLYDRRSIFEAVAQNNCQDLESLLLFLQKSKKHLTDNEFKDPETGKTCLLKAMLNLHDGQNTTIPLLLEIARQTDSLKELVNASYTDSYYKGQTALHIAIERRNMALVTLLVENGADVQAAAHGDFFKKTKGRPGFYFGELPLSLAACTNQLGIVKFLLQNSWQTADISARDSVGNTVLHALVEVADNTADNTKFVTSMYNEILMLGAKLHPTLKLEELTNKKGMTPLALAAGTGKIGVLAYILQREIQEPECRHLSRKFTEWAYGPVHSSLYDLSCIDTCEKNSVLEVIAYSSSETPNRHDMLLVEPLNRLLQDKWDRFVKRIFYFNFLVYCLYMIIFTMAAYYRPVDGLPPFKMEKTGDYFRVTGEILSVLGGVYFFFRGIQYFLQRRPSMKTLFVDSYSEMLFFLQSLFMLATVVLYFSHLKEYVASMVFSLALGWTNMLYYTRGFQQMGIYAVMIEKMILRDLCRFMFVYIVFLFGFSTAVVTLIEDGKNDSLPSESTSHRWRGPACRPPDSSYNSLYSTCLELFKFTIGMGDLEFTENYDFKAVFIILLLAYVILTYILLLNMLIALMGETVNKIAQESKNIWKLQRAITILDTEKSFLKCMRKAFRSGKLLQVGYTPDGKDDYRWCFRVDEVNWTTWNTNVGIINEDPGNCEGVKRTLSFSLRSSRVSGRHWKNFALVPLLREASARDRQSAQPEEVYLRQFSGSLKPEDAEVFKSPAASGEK

SMILES	IC50 ([1]; read-out: IC50) [nM]	Ki ([2]; read-out: Ki) [nM]	also measured
CC(C(=O)NCc1ccc(C(F)(F)F)nc1N1CCCCCC1)c1ccc(NS(C)(=O)=O)c(F)c1 (racemic)	25.1	0.8	
CC1CCC(Nc2nc(C(F)(F)F)ccc2CNC(=O)C(C)c2ccc(NS(C)(=O)=O)c(F)c2)CC1 (racemic)	1130	27.2	
CC(C(=O)NCc1ccc(C(F)(F)F)nc1N1CCC(C(=O)c2ccc(F)cc2)CC1)c1ccc(NS(C)(=O)=O)c(F)c1 (racemic)	990	3.9	
CC(C)(C)c1ccc(CNC(=S)NCc2ccc(NS(C)(=O)=O)c(F)c2)cc1		26	IC50 ([1]; cho-k1): Not Active
C[C@H](C(=O)NCc1ccc(C(C)(C)C)cc1)c1ccc(NS(C)(=O)=O)c(F)c1	1210	20	Activity [3]: Non-toxic; Activity [4]: Non-toxic; Activity [5]: Active; Ki [6]: 6.6 nM; IC50 [7]: 174 nM
CC(C(=O)NCc1ccc(C(F)(F)F)nc1N1CCN(c2ccc(C(F)(F)F)cc2)CC1)c1ccc(NS(C)(=O)=O)c(F)c1 (racemic)	117	2.3	
CC1CCN(c2nc(C(F)(F)F)ccc2CNC(=O)[C@H](C)c2ccc(NS(C)(=O)=O)c(F)c2)CC1	254	9.8	
CC1CCCN1c1nc(C(F)(F)F)ccc1CNC(=O)[C@@H](C)c1ccc(NS(C)(=O)=O)c(F)c1 (stereo not given in full)		0.3	
CC(C(=O)NCc1ccc(C(F)(F)F)nc1N1CCC(Cc2cc(F)cc(F)c2)CC1)c1ccc(NS(C)(=O)=O)c(F)c1 (racemic)	24	0.4	
CC(C(=O)NCc1ccc(C(F)(F)F)nc1N1CCC(Cc2ccc(F)c(F)c2)CC1)c1ccc(NS(C)(=O)=O)c(F)c1 (racemic)	30	0.2	
C[C@H](C(=O)NCc1ccc(C(F)(F)F)nc1N1CCC[C@H]1C(=O)N(C)C)c1ccc(NS(C)(=O)=O)c(F)c1			IC50 ([1]; cho-k1): Not Active
C[C@H](C(=O)NCc1ccc(C(F)(F)F)nc1N1CCC[C@H]1CO)c1ccc(NS(C)(=O)=O)c(F)c1			IC50 ([1]; cho-k1): Not Active
CC(C(=O)NCc1ccc(C(F)(F)F)nc1N1CCC(O)CC1)c1ccc(NS(C)(=O)=O)c(F)c1 (racemic)			IC50 ([1]; cho-k1): Not Active; Ki ([2]; cho-k1): Not Active
CC(C(=O)NCc1ccc(C(F)(F)F)nc1N1CCN(c2ncccc2Cl)CC1)c1ccc(NS(C)(=O)=O)c(F)c1 (racemic)	117		
CC(C(=O)NCc1ccc(C(F)(F)F)nc1N1CCC(CN(C)C)CC1)c1ccc(NS(C)(=O)=O)c(F)c1 (racemic)	426	2.1	
O=C(/C=C/c1ccc(C(F)(F)F)nc1N1CCCCC1)Nc1ccc2cccnc2c1		4.4	IC50 ([1]; cho-k1): Not Active
CC(C(=O)NCc1ccc(C(F)(F)F)nc1N1CCCCC1)c1ccc(NS(C)(=O)=O)c(F)c1 (racemic)		0.43	
CC(C(=O)NCc1ccc(C(F)(F)F)nc1NCc1cccnc1)c1ccc(NS(C)(=O)=O)c(F)c1 (racemic)			IC50 ([1]; cho-k1): Not Active; Ki ([2]; cho-k1): Not Active
CC1CCN(c2nc(C(F)(F)F)ccc2CNC(=O)C(C)c2ccc(NS(C)(=O)=O)c(F)c2)CC1 (racemic)	8.4		
C[C@H](C(=O)NCc1ccc(C(F)(F)F)nc1N1CC[C@H](N(C)C)C1)c1ccc(NS(C)(=O)=O)c(F)c1		103	
O=C(/C=C/c1ccc(C(F)(F)F)nc1N1CCOCC1)Nc1ccc2cccnc2c1	116	1.2	
C[C@H](C(=O)NCc1ccc(C(F)(F)F)nc1N1CC[C@@H](NC(=O)OC(C)(C)C)C1)c1ccc(NS(C)(=O)=O)c(F)c1	757	11	
C[C@H](C(=O)NCc1ccc(C(F)(F)F)nc1N1CCC[C@H]1C(=O)OC(C)(C)C)c1ccc(NS(C)(=O)=O)c(F)c1	209	2.6	
CC(C(=O)NCc1ccc(C(F)(F)F)nc1)c1ccc(NS(C)(=O)=O)c(F)c1 (racemic)			IC50 ([1]; cho-k1): Not Active
CC1CCN(c2nc(C(F)(F)F)ccc2CNC(=O)[C@@H](C)c2ccc(NS(C)(=O)=O)c(F)c2)CC1	6.3	0.2	Activity [3]: Non-toxic; Activity [4]: Non-toxic; Activity [8]: Active; Emax at 3.16 mg/kg [9]: 60%; Activity [10]: Dose-dependent effect; ED50 [10]: 0.9 mg/kg; Ki [6]: 0.01 nM; IC50 [7]: 0.8 nM; Activity [11]: Toxic; Activity [12]: Non-toxic
C[C@H](C(=O)NCc1ccc(C(F)(F)F)nc1N1CCCCC1)c1ccc(NS(C)(=O)=O)c(F)c1	46.7		
C[C@H](C(=O)NCc1ccc(C(F)(F)F)nc1N1CC[C@@H](OCc2ccccc2)C1)c1ccc(NS(C)(=O)=O)c(F)c1	50	1.4	
C[C@H](C(=O)NCc1ccc(C(F)(F)F)nc1N1CC[C@H](NC(=O)OC(C)(C)C)C1)c1ccc(NS(C)(=O)=O)c(F)c1	737	7.1	
Cc1ccc(CC2CCN(c3nc(C(F)(F)F)ccc3CNC(=O)C(C)c3ccc(NS(C)(=O)=O)c(F)c3)CC2)cc1 (racemic)	17	0.2	
C[C@H](C(=O)NCc1ccc(C(F)(F)F)nc1N1CC[C@@H](N(C)C)C1)c1ccc(NS(C)(=O)=O)c(F)c1		101	
